The record followed here is patent US20080318933A1, “5-Sulfonyl-1-Piperidinyl Substituted Indole Derivatives as 5-Ht6 Receptor Antagonists for the Treatment of Cns Disorders” (Glaxo Group Limited, priority 2004, published 2008).

Structures can show the parent of a compound that is named as a salt.

In this assay the target is T1, human cloned 5-HT6 receptors (Homo sapiens, UniProt P50406).
T1 construct: expressed in transfected cells; host or cells: HeLa cells expressing cloned human 5-HT6 receptor (membranes)
T1 sequence (P50406 whole entry): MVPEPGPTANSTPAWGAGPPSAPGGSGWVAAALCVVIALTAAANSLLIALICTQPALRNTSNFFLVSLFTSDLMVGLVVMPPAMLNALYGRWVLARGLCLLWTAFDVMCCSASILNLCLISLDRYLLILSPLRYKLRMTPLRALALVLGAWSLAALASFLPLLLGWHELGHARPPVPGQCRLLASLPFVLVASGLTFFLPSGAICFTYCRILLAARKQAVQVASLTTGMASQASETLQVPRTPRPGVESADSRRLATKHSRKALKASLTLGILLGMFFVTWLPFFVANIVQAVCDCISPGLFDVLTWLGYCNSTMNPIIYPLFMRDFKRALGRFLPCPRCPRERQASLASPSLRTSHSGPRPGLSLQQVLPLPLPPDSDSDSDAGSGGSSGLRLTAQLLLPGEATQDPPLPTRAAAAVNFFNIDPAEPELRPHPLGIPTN
In words: Cyclase assay (cAMP production in membranes of HeLa 5HT6 cells, 5-HT stimulated). It is filed as biochemical. The conditions noted are these: 5-HT at 4xEC50, functional Ki by Cheng-Prusoff, read-out: pKi values (converted). On the procedure: 0.5 μl of test compound in 100% dimethylsulfoxide (DMSO) was added to a white, solid 384 well assay plate (for dose response measurements the top of the concentration range is 7.5 μM final). 10 μl of washed membranes of HeLa 5HT6 cells (for preparation see WO 98/27081) in basic buffer (50 mM HEPES pH 7.4 (KOH), 10 mM MgCl2, 100 mM NaCl, 10 μM 3-isobutyl-1-methylxanthine (IBMX) (Sigma-Aldrich)) was added to all wells followed by 10 μl 2×ATP buffer (i.e. basic buffer containing 3 mM ATP) with 5-HT (at a concentration equivalent to a dose response of 4×EC50). The resultant mixture was then incubated at room temperature for 30-45 minutes to allow cAMP production. cAMP production was then measured using the DiscoveRX™ HitHunter™ chemiluminescence cAMP assay kit (DiscoveRx Corporation, 42501 Albrae Street, Fremont, Calif. 94538; Product Code: 90-0004L) or any other suitable cAMP measurement assay.
IC50 values were estimated from arbitrary designated unit (ADU) measurements from a Perkin Elmer Viewlux instrument using a four parameter logistic curve fit within EXCEL (Bowen, W. P. and Jerman, J. C. (1995), Nonlinear regression using spreadsheets. Trends in Pharmacol. Sci., 16, 413-417). Functional Ki values were calculated using the method of Cheng, Y. C. and Prussof, W. H. (Biochemical Pharmacol (1973) 22 3099-3108). plC50 and fpKi are the negative log 10 of the molar IC50 and functional Ki respectively.
`O=S(=O)(c1ccccc1)c1ccc2c(c1)CCN2C1CCNCC1` [Example E3a, 5-(Phenylsulfonyl)-1-(4-piperidinyl)-2,3-dihydro-1H-indole hydrochloride]: the Ki was at most 10 nM. The same measure for `CC(C)N1CCC(N2CCc3cc(S(=O)(=O)c4cc(F)cc(F)c4)ccc32)CC1` [Example E52, 5-[(3,5-Difluorophenyl)sulfonyl]-1-[1-(1-methylethyl)-4-piperidinyl)-2,3-dihydro-1H-indole hydrochloride]: at most 10 nM; for `CC(C)CN1CCC(N2CCc3cc(S(=O)(=O)c4ccccc4)ccc32)CC1` [Example E37, 1-[1-(2-Methylpropyl)-4-piperidinyl]-5-(phenylsulfonyl)-2,3-dihydro-1H-indole hydrochloride]: at most 10 nM; for `CCN1CCC(N2CCc3cc(S(=O)(=O)c4ccc(F)c(F)c4)ccc32)CC1` [Example E60, 5-[(3,4-Difluorophenyl)sulfonyl]-1-(1-ethyl-4-piperidinyl)-2,3-dihydro-1H-indole hydrochloride]: at most 10 nM. The same measure for `CCN1CCC(N2CCc3cc(S(=O)(=O)c4cccc(C)c4)ccc32)CC1` [Example E63, 5-[(3-Methylphenyl)sulfonyl]-1-(1-ethyl-4-piperidinyl)-2,3-dihydro-1H-indole hydrochloride]: at most 10 nM; for `O=S(=O)(c1ccc2c(c1)CCN2C1CCNCC1)c1ccccc1Cl` [Example E12, 5-[(2-Chlorophenyl)sulfonyl]-1-(4-piperidinyl)-2,3-dihydro-1H-indole hydrochloride]: at most 10 nM. The same measure for `O=S(=O)(c1ccc2c(c1)CCN2C1CCNCC1)c1ccccc1F` [Example E9, 5-[(2-Fluorophenyl)sulfonyl]-1-(4-piperidinyl)-2,3-dihydro-1H-indole hydrochloride]: at most 10 nM; for `CC(C)N1CCC(N2CCc3cc(S(=O)(=O)c4ccccc4F)ccc32)CC1` [Example E45, 5-[(2-Fluorophenyl)sulfonyl]-1-[1-(1-methylethyl)-4-piperidinyl]-2,3-dihydro-1H-indole hydrochloride]: at most 10 nM. Turning to `COc1cccc(S(=O)(=O)c2ccc3c(c2)CCN3C2CCNCC2)c1` [Example E23, 5-{[3-(Methyloxy)phenyl]sulfonyl}-1-(4-piperidinyl)-2,3-dihydro-1H-indole hydrochloride], the Ki was at most 10 nM.

Take `O=S(=O)(c1ccc(F)cc1)c1ccc2c(c1)CCN2C1CCNCC1` [Example E15a, 5-[(4-Fluorophenyl)sulfonyl]-1-(4-piperidinyl)-2,3-dihydro-1H-indole hydrochloride]: the Ki is at most 10 nM. For `CCN1CCC(N2CCc3cc(S(=O)(=O)c4ccccc4F)ccc32)CC1` [Example E58, 5-[(2-Fluorophenyl)sulfonyl]-1-(1-ethyl-4-piperidinyl)-2,3-dihydro-1H-indole hydrochloride], the Ki is at most 10 nM. `CCN1CCC(N2CCc3cc(S(=O)(=O)c4cccc(F)c4)ccc32)CC1` [Example E55, 5-[(3-Fluorophenyl)sulfonyl]-1-(1-ethyl-4-piperidinyl)-2,3-dihydro-1H-indole hydrochloride]: the Ki was at most 10 nM. The same measure for `O=S(=O)(c1cccc(F)c1)c1ccc2c(c1)CCN2C1CCNCC1` [Example E8, 5-[(3-Fluorophenyl)sulfonyl]-1-(4-piperidinyl)-2,3-dihydro-1H-indole hydrochloride]: at most 10 nM. In the case of `O=S(=O)(c1ccc(Cl)cc1)c1ccc2c(c1)CCN2C1CCNCC1` [Example E13, 5-[(4-Chlorophenyl)sulfonyl]-1-(4-piperidinyl)-2,3-dihydro-1H-indole hydrochloride], the Ki is at most 10 nM.

With `CCN1CCC(N2CCc3cc(S(=O)(=O)c4cc(F)cc(F)c4)ccc32)CC1` [Example E51, 5-[(3,5-Difluorophenyl)sulfonyl]-1-(1-ethyl-4-piperidinyl)-2,3-dihydro-1H-indole hydrochloride], the Ki was at most 10 nM. The same measure for `Cc1cccc(S(=O)(=O)c2ccc3c(c2)CCN3C2CCNCC2)c1` [Example E26, 5-[(3-Methylphenyl)sulfonyl]-1-(4-piperidinyl)-2,3-dihydro-1H-indole hydrochloride]: at most 10 nM; for `CN1CCC(N2CCc3cc(S(=O)(=O)c4ccc(F)cc4)ccc32)CC1` [Example E41, 5-[(4-Fluorophenyl)sulfonyl]-1-(1-methyl-4-piperidinyl)-2,3-dihydro-1H-indole hydrochloride]: at most 10 nM; for `CCN1CCC(n2ccc3cc(S(=O)(=O)c4cccc(F)c4)ccc32)CC1` [Example E33, 1-(1-Ethyl-4-piperidinyl)-5-[(3-fluorophenyl)sulfonyl]-1H-indole hydrochloride]: at most 10 nM. In the case of `CCN1CCC(N2CCc3cc(S(=O)(=O)c4ccccc4)ccc32)CC1` [Example E39, 1-(1-Ethyl-4-piperidinyl)-5-(phenylsulfonyl)-2,3-dihydro-1H-indole hydrochloride], the Ki was at most 10 nM. The same measure for `CN1CCC(N2CCc3cc(S(=O)(=O)c4cccc(F)c4)ccc32)CC1` [Example E47, 5-[(3-Fluorophenyl)sulfonyl]-1-(1-methyl-4-piperidinyl)-2,3-dihydro-1H-indole hydrochloride]: at most 10 nM. The same measure for `Cc1nn(C)c(C)c1S(=O)(=O)c1ccc2c(c1)CCN2C1CCNCC1` [Example E29, 1-(4-Piperidinyl)-5-[(1,3,5-trimethyl-1H-pyrazol-4-yl)sulfonyl]-2,3-dihydro-1H-indole hydrochloride]: below 316 nM. The same measure for `CC(C)N1CCC(N2CCc3cc(S(=O)(=O)c4ccccc4)ccc32)CC1` [Example E36, 1-[1-(1-Methylethyl)-4-piperidinyl]-5-(phenylsulfonyl)-2,3-dihydro-1H-indole]: at most 10 nM. On to `N#Cc1ccccc1S(=O)(=O)c1ccc2c(c1)CCN2C1CCNCC1` [Example E20, 2-{[1-(4-Piperidinyl)-2,3-dihydro-1H-indol-5-yl]sulfonyl}-benzonitrile hydrochloride], for which the Ki was at most 10 nM. In the case of `O=S(=O)(c1ccc2c(ccn2C2CCNCC2)c1)c1ccccc1F` [Example E14, 5-[(2-fluorophenyl)sulfonyl]-1-(4-piperidinyl)-1H-indole hydrochloride], the Ki was at most 10 nM. The same measure for `O=S(=O)(c1cc(F)cc(F)c1)c1ccc2c(c1)CCN2C1CCNCC1` [Example E10, 5-[(3,5-Difluorophenyl)sulfonyl]-1-(4-piperidinyl)-2,3-dihydro-1H-indole hydrochloride]: at most 10 nM; for `O=S(=O)(c1ccccc1)c1ccc2c(c1)CCN2C1CCN2CCCC2C1` (stereo not shown) [Example E6, 1-(Octahydro-7-indolizinyl)-5-(phenylsulfonyl)-2,3-dihydro-1H-indole hydrochloride]: at most 10 nM.

As to `CN1CCC(n2ccc3cc(S(=O)(=O)c4ccccc4)ccc32)CC1` [Example E2, 1-(1-Methyl-4-piperidinyl)-5-(phenylsulfonyl)-1H-indole hydrochloride], the Ki was at most 10 nM.

For `CC1(N2CCc3cc(S(=O)(=O)c4ccccc4)ccc32)CCNCC1` [Example E7, 1-(4-Methyl-4-piperidinyl)-5-(phenylsulfonyl)-2,3-dihydro-1H-indole hydrochloride], the Ki is below 316 nM.
